{"source": "patent US20200371122A1", "about": "“BIOMARKER FOR SENESCENT CELLS” (Buck Institute for Research on Aging, priority 2017, published 2020)", "type_in_all_cases": "in vivo, mouse", "key": {"[1]": {"system": "C57BL6/J and p16-3MR mice injured with bleomycin", "test": "Bleomycin-induced pulmonary fibrosis in mice"}, "[2]": {"system": "C57BL6/J and p16-3MR mice injured with bleomycin", "test": "Bleomycin-induced pulmonary fibrosis in mice", "procedure": "RNA was extracted from cells or tissues using commercially available kits (Isolate II—Bioline for cells; Direct-zol—Zymo for tissues) according to the manufacturer's instructions. cDNA synthesis was performed using a High Capacity cDNA Reverse Transcription Kit (Thermo Fisher) according to the manufacturer's instructions. Quantitative PCR was performed on a LightCycler 480 II (Roche) using primers and probes designed for the Universal Probe Library. Primers and probes used for human transcripts were ACTB: 5′-CCAACCGCGAGAAGATGA (SEQ ID NO:1), 5′-TCCATCACGATGCCAGTG (SEQ ID NO:2), Probe #64; TUBA: 5′-cttcgtctccgccatcag (SEQ ID NO:3), 5′-ttgccaatctggacacca (SEQ ID NO:4), Probe #58; ALOX5: 5′-[…] (SEQ ID NO:5), 5′-[…] (SEQ ID NO:6), Probe #64; ALOX5AP: 5′-ggtctgcggggctacttt (SEQ ID NO:7), 5′-[…] (SEQ ID NO:8), Probe #18; ALOX12: 5′-[…] (SEQ ID NO:9), 5′-agccaggtcgtcaggag (SEQ ID NO:10), Probe #32; ALOX15: 5′-[…] (SEQ ID NO:11), 5′-[…] (SEQ ID NO:12), Probe #76; ALOX15B: 5′-[…] (SEQ ID NO:13), 5′-actgggaggcgaagaagg (SEQ ID NO:14), Probe #51; AKR1C1: 5′-catgcctgtcctgggattt (SEQ ID NO:15), 5′-[…] (SEQ ID NO:16), Probe #49; AKR1C2: 5′-ctatgcgcctgcagaggt (SEQ ID NO:17), 5′-[…] (SEQ ID NO:18), Probe #31; AKR1C3: 5′-[…] (SEQ ID NO:19), 5′-[…] (SEQ ID NO:20), Probe #78; CYSLTR2: 5′-[…] (SEQ ID NO:21), 5′-[…] (SEQ ID NO:22), Probe #18; DPEP1: 5′-gacgtcctgaggctggtg (SEQ ID NO:23), 5′-[…] (SEQ ID NO:24), Probe #9 (SEQ ID NO:25), ELOVL2: 5′-[…] (SEQ ID NO:26), 5′-[…] (SEQ ID NO:27), Probe #53; ELOVL4: 5′-catttggcccatggattc (SEQ ID NO:28), 5′-[…] (SEQ ID NO:29), Probe #31; ELOVL5: 5′-cccttccatgcgtccata (SEQ ID NO:30), 5′-[…] (SEQ ID NO:31), Probe #31; EPHX2: 5′-ttctgctggacaccctgaa (SEQ ID NO:32), 5′-[…] (SEQ ID NO:33), Probe #45; GPX4: 5′-ttcccgtgtaaccagttcg (SEQ ID NO:34), 5′-[…] (SEQ ID NO:35), Probe #36; LTA4H: 5′-ctgctctcacggtccagtc (SEQ ID NO:36), 5′-[…] (SEQ ID NO:37), Probe #64; LTBR2: 5′-[…] (SEQ ID NO:38), 5′-[…] (SEQ ID NO:39), Probe #33; LTC4S: 5′-[…] (SEQ ID NO:40), 5′-[…] (SEQ ID NO:41), Probe #18; PTGDS: 5′-[…] (SEQ ID NO:42), 5′-[…] (SEQ ID NO:43), Probe #36; PTGES: 5′-agagatgcctgcccacag (SEQ ID NO:44), 5′-tggccaccacgtacatctt (SEQ ID NO:45), Probe #4; PTGES2: 5′-[…] (SEQ ID NO:46), 5′-[…] (SEQ ID NO:47), Probe #49; PTGES3 (SEQ ID NO:48), 5′-[…] (SEQ ID NO:49), 5′-[…] (SEQ ID NO:50), Probe #48; PTGIS: 5′-[…] (SEQ ID NO:51), 5′-[…] (SEQ ID NO:52), Probe #45; PTGR1: 5′-atgatggggcagcaagtg (SEQ ID NO:53), 5′-cccatcagaaatggagtgc (SEQ ID NO:54), Probe #64; PTGS1: 5′-[…] (SEQ ID NO:55), 5′-gtggtggtccatgttcctg (SEQ ID NO:56), Probe #81; PTGS2: 5′-gatccccagggctcaaac (SEQ ID NO:57), 5′-[…] (SEQ ID NO:58), Probe #61; TBXAS1: 5′-[…] (SEQ ID NO:59), 5′-tgcctcccgtgtgaatct (SEQ ID NO:60), Probe #73; AREG: 5′-[…] (SEQ ID NO:61), 5′-[…] (SEQ ID NO:62), Probe #73; CCL2: 5′-AGTCTCTGCCGCCCTTCT (SEQ ID NO:63), 5′-GTGACTGGGGCATTGATTG (SEQ ID NO:64), Probe #40; CCL27: 5′-[…] (SEQ ID NO:65), 5′-gctgggtggcagtaggaat (SEQ ID NO:66), Probe #18; CXCL1: 5′-[…] (SEQ ID NO:67), 5′-[…] (SEQ ID NO:68), Probe #52; HGF: 5′-[…] (SEQ ID NO:69), 5′-[…] (SEQ ID NO:70), Probe #49; ILIA: 5′-[…] (SEQ ID NO:71), 5′-[…] (SEQ ID NO:72), Probe #6; IL1B: 5′-[…] (SEQ ID NO:73), 5′-[…] (SEQ ID NO:74), Probe #78; IL6: 5′-[…] (SEQ ID NO:75), 5′-gaaggcagcaggcaacac (SEQ ID NO:76), Probe #45; IL8: 5′-[…] (SEQ ID NO:77), 5′-atggttccttccggtggt (SEQ ID NO:78), Probe #72; IL10: 5′-[…] (SEQ ID NO:79), 5′-[…] (SEQ ID NO:80), Probe #67; MMP3: 5′-[…] (SEQ ID NO:81), 5′-[…] (SEQ ID NO:82), Probe #36; PDGFA: 5′-[…] (SEQ ID NO:83), 5′-[…] […]", "remark": "listed apart in the source"}, "p16-positive cells": {"system": "p16-positive cells", "test": "Eicosanoid synthase gene expression in livers of doxorubicin-treated or aged p16-3MR mice", "conditions": "liver", "procedure": "RNA was extracted from cells or tissues using commercially available kits (Isolate II—Bioline for cells; Direct-zol—Zymo for tissues) according to the manufacturer's instructions. cDNA synthesis was performed using a High Capacity cDNA Reverse Transcription Kit (Thermo Fisher) according to the manufacturer's instructions. Quantitative PCR was performed on a LightCycler 480 II (Roche) using primers and probes designed for the Universal Probe Library. Primers and probes used for human transcripts were ACTB: 5′-CCAACCGCGAGAAGATGA (SEQ ID NO:1), 5′-TCCATCACGATGCCAGTG (SEQ ID NO:2), Probe #64; TUBA: 5′-cttcgtctccgccatcag (SEQ ID NO:3), 5′-ttgccaatctggacacca (SEQ ID NO:4), Probe #58; ALOX5: 5′-[…] (SEQ ID NO:5), 5′-[…] (SEQ ID NO:6), Probe #64; ALOX5AP: 5′-ggtctgcggggctacttt (SEQ ID NO:7), 5′-[…] (SEQ ID NO:8), Probe #18; ALOX12: 5′-[…] (SEQ ID NO:9), 5′-agccaggtcgtcaggag (SEQ ID NO:10), Probe #32; ALOX15: 5′-[…] (SEQ ID NO:11), 5′-[…] (SEQ ID NO:12), Probe #76; ALOX15B: 5′-[…] (SEQ ID NO:13), 5′-actgggaggcgaagaagg (SEQ ID NO:14), Probe #51; AKR1C1: 5′-catgcctgtcctgggattt (SEQ ID NO:15), 5′-[…] (SEQ ID NO:16), Probe #49; AKR1C2: 5′-ctatgcgcctgcagaggt (SEQ ID NO:17), 5′-[…] (SEQ ID NO:18), Probe #31; AKR1C3: 5′-[…] (SEQ ID NO:19), 5′-[…] (SEQ ID NO:20), Probe #78; CYSLTR2: 5′-[…] (SEQ ID NO:21), 5′-[…] (SEQ ID NO:22), Probe #18; DPEP1: 5′-gacgtcctgaggctggtg (SEQ ID NO:23), 5′-[…] […]"}, "[3]": {"conditions": "bleomycin-treated animals, day 14, ELISA"}}}
{"smiles": "Nc1nc(O)c2ncn(COC(CO)CO)c2n1", "note": "[GCV, ganciclovir]", "values": [{"measurement": "collagen content (hydroxyproline)", "setting": "[1]; 21 days after injury", "value": "reduced"}, {"measurement": "cysteinyl leukotrienes in bronchioalveolar lavage fluid (BALF)", "setting": "[1]; [3]", "value": "reduced"}, {"measurement": "prostaglandin E2 in bronchioalveolar lavage fluid (BALF)", "setting": "[1]; [3]", "value": "reduced"}, {"measurement": "RNA levels of p16INK4a and p21WAF1 in lungs", "setting": "[2]; 14 days after bleomycin injury", "value": "significantly attenuated"}, {"measurement": "collagen expression (Col3a1 and Col4a1)", "setting": "[2]; bleomycin-injured mice, 21 days after injury as printed", "value": "reduced"}, {"measurement": "eicosanoid synthase expression", "setting": "p16-positive cells; doxorubicin-treated p16-3MR mice, day 10", "value": "reduced"}, {"measurement": "eicosanoid synthase expression", "setting": "p16-positive cells; p16-3MR mice aged 21 months", "value": "not statistically significant"}]}
